Results taken from article PMC8699473, “An Easily Expandable Multi-Drug LC-MS Assay for the Simultaneous Quantification of 57 Oral Antitumor Drugs in Human Plasma” (Cancers, 2021).

Assay: Short-term stability in spiked pooled human plasma (bench-top, 4 °C, 56 °C)

| Structure (SMILES) | Short-time stability (1h, 56°C) Accuracy [%] (validation standard 2xLLOV) | Short-time stability (24h, 4°C, without daylight) Accuracy [%] (validation standard 2xLLOV) | Short-time stability (24h, RT, with daylight) Accuracy [%] (validation standard 2xLLOV) | Short-time stability (24h, RT, without daylight) Accuracy [%] (validation standard 2xLLOV) | Short-time stability (1h, 56°C) Accuracy [%] (validation standard LLOV) | Short-time stability (24h, 4°C, without daylight) Accuracy [%] (validation standard LLOV) | Short-time stability (24h, RT, with daylight) Accuracy [%] (validation standard LLOV) | Short-time stability (24h, RT, without daylight) Accuracy [%] (validation standard LLOV) | Short-time stability (1h, 56°C) Accuracy [%] (validation standard MOV) | Short-time stability (24h, 4°C, without daylight) Accuracy [%] (validation standard MOV) | Short-time stability (24h, RT, with daylight) Accuracy [%] (validation standard MOV) | Short-time stability (24h, RT, without daylight) Accuracy [%] (validation standard MOV) | Short-time stability (1h, 56°C) Accuracy [%] (validation standard ULOV) | Short-time stability (24h, 4°C, without daylight) Accuracy [%] (validation standard ULOV) | Short-time stability (24h, RT, with daylight) Accuracy [%] (validation standard ULOV) | Short-time stability (24h, RT, without daylight) Accuracy [%] (validation standard ULOV) |
| --- | --- | --- | --- | --- | --- | --- | --- | --- | --- | --- | --- | --- | --- | --- | --- | --- |
| N#CC[C@H](C1CCCC1)n1cc(-c2ncnc3[nH]ccc23)cn1 [Ruxolitinib] | 63.9 | 97.6 | 101.6 | 102.0 | 63.3 | 102.2 | 100.4 | 105.0 | 60.9 | 100.3 | 100.6 | 102.2 | 53.0 | 95.9 | 102.3 | 101.3 |
| Cc1c(C(=O)Nc2ccc(N3C[C@@H](C)O[C@@H](C)C3)nc2)cccc1-c1ccc(OC(F)(F)F)cc1 [Sonidegib] | 47.0 | 99.1 | 95.7 | 91.1 | 38.1 | 96.4 | 96.2 | 86.1 | 44.9 | 98.4 | 92.2 | 94.7 | 40.1 | 96.7 | 92.9 | 91.4 |
| CNC(=O)c1cc(Oc2ccc(NC(=O)Nc3ccc(Cl)c(C(F)(F)F)c3)cc2)ccn1 [Sorafenib] | 38.6 | 97.0 | 85.6 | 81.9 | 28.2 | 96.0 | 83.4 | 72.1 | 38.4 | 98.2 | 89.2 | 91.9 | 34.6 | 92.5 | 91.0 | 89.2 |
| O=C1CCC(N2C(=O)c3ccccc3C2=O)C(=O)N1 (stereo not shown) [Thalidomide] | – | 64.9 | – | – | – | 69.3 | – | – | – | 60.7 | – | – | – | 55.2 | 1.7 | 1.7 |
| COc1cc2nccc(Oc3ccc(NC(=O)Nc4cc(C)on4)c(Cl)c3)c2cc1OC [Tivozanib] | 49.4 | 103.2 | 104.0 | 103.9 | 38.6 | 102.5 | 99.0 | 100.8 | 49.6 | 100.8 | 103.5 | 105.8 | 42.5 | 98.0 | 104.7 | 103.8 |
| CC(=O)Nc1cccc(-n2c(=O)n(C3CC3)c(=O)c3c(Nc4ccc(I)cc4F)n(C)c(=O)c(C)c32)c1 [Trametinib] | 40.7 | 101.9 | 88.2 | 94.3 | 0.4 | 90.4 | 78.3 | 53.1 | 52.0 | 115.0 | 101.6 | 99.7 | 47.5 | 108.2 | 96.8 | 92.2 |
| O=c1[nH]c(=O)n([C@H]2C[C@H](O)[C@@H](CO)O2)cc1C(F)(F)F [Trifluridine] | -6.6 | 103.5 | 72.7 | 76.2 | -89.2 | 83.6 | 45.6 | 36.1 | 28.1 | 96.3 | 78.0 | 75.3 | 23.2 | 85.5 | 66.9 | 67.3 |
| COc1cc2c(Nc3ccc(Br)cc3F)ncnc2cc1OCC1CCN(C)CC1 [Vandetanib] | 44.7 | 99.4 | 97.2 | 94.8 | 24.9 | 91.7 | 81.4 | 80.3 | 49.3 | 101.6 | 95.8 | 95.1 | 41.3 | 88.8 | 83.1 | 83.3 |
| CCCS(=O)(=O)Nc1ccc(F)c(C(=O)c2c[nH]c3ncc(-c4ccc(Cl)cc4)cc23)c1F [Vemurafenib] | 41.6 | 93.0 | 92.7 | 85.9 | 34.3 | 90.0 | 93.0 | 82.9 | 39.7 | 100.4 | 89.3 | 92.1 | 34.6 | 93.8 | 91.3 | 88.2 |
| CC1(C)CCC(CN2CCN(c3ccc(C(=O)NS(=O)(=O)c4ccc(NCC5CCOCC5)c([N+](=O)[O-])c4)c(Oc4cnc5[nH]ccc5c4)c3)CC2)=C(c2ccc(Cl)cc2)C1 [Venetoclax] | 34.5 | 102.9 | 98.6 | 95.7 | – | 88.8 | 112.5 | 102.7 | 26.4 | 100.5 | 96.8 | 98.0 | 22.4 | 99.7 | 94.1 | 92.7 |
| CCC1=C[C@@H]2CN(C1)Cc1c([nH]c3ccccc13)[C@@](C(=O)OC)(c1cc3c(cc1OC)N(C)[C@H]1[C@@](O)(C(=O)OC)[C@H](OC(C)=O)[C@]4(CC)C=CCN5CC[C@]31[C@@H]54)C2 [Vinorelbine] | 42.2 | 88.7 | 78.0 | 79.3 | 67.0 | 96.3 | 98.2 | 96.4 | 37.2 | 93.6 | 66.8 | 70.0 | 29.6 | 91.1 | 62.0 | 57.4 |
| CS(=O)(=O)c1ccc(C(=O)Nc2ccc(Cl)c(-c3ccccn3)c2)c(Cl)c1 [Vismodegib] | 63.8 | 105.0 | 114.6 | 117.6 | 34.2 | 87.2 | 96.1 | 99.6 | 65.7 | 105.3 | 111.1 | 114.6 | 54.4 | 94.5 | 103.5 | 104.5 |
